According to ChEMBL document CHEMBL4334430, “A cell-based screening system for RNA polymerase I inhibitors” (Medchemcomm, 2019):
The source made the active and inactive calls. The rule behind the calls is not given here.

Experiments:
[1] = system: A2780; assay: Antiproliferative activity against human A2780 cells incubated for 4 days by MTT assay; format: functional, cell-based; details: A2780, 96 h
[2] = system: Saccharomyces cerevisiae; assay: Inhibition of yeast RNA polymerase 1 in YBR140C cells expressing human RNA polymerase 1 promoter and rRNA assessed as reduction in human rDNA transcription at 312 to 2500 nM by qRT-PCR analysis; format: cell-based
[3] = system: Saccharomyces cerevisiae; assay: Inhibition of yeast RNA polymerase 1 in YBR140C cells expressing human RNA polymerase 1 promoter and rRNA assessed as reduction in cell growth at 126 to 2500 nM by UV-spectrophotometric analysis; format: cell-based
[4] = system: Saccharomyces cerevisiae; assay: Inhibition of yeast RNA polymerase 1 in YBR140C cells expressing human RNA polymerase 1 promoter and rRNA assessed as reduction in cell growth at 390 to 1560 nM by UV-spectrophotometric analysis; format: cell-based
[5] = system: NCI-H460; assay: Antiproliferative activity against human H460 cells incubated for 4 days by MTT assay; format: functional, cell-based; details: NCI-H460, 96 h
[6] = system: Saccharomyces cerevisiae; assay: Inhibition of yeast RNA polymerase 1 in YBR140C cells expressing human RNA polymerase 1 promoter and rRNA assessed as reduction in human rDNA transcription at 390 to 3120 nM by qRT-PCR analysis; format: cell-based

SMILES | IC50 [1] [µM] | inhibition [2] | inhibition [3] | inhibition [4] | IC50 [5] [µM] | inhibition [6]
Cc1cnc(CNC(=O)c2c(=O)c3ccc(N4CCCN(C)CC4)nc3n3c2sc2ccccc23)cn1 [CX-5461] | 0.12 | Active | Active |  |  | 
COCc1c(C(C)C)nc(C(C)C)c(/C=C/[C@@H](O)C[C@@H](O)CC(=O)O)c1-c1ccc(F)cc1 [CERIVASTATIN SODIUM] | 0.7 |  |  | Active | 3.5 | Active
